Earlier results on three compounds are cited in patent US20140127235A1, “TARGETING HK alpha FOR CONTROLLING BLOOD PRESSURE AND REGULATING ELECTROLYTE BALANCE” (UNIVERSITY OF FLORIDA RESEARCH FOUNDATION, INC., priority 2011, published 2014).

Data set [1] deals with HKα1-containing H^+,K^+-ATPases (Homo sapiens, UniProt P20648). Particulars: subsequent studies; cited from earlier work.
In data set [2] the test system is H^+,K^+-ATPase. The settings on record: rats, seven days low, normal or high aldosterone levels, normal and high K+ diets; cited from earlier work.
Data set [3] relates to HKa2 mRNA. The settings on record: progesterone alone (Elabida et al., 2011); cited from earlier work.

Sequence of HKα1-containing H^+,K^+-ATPases (P20648 whole entry): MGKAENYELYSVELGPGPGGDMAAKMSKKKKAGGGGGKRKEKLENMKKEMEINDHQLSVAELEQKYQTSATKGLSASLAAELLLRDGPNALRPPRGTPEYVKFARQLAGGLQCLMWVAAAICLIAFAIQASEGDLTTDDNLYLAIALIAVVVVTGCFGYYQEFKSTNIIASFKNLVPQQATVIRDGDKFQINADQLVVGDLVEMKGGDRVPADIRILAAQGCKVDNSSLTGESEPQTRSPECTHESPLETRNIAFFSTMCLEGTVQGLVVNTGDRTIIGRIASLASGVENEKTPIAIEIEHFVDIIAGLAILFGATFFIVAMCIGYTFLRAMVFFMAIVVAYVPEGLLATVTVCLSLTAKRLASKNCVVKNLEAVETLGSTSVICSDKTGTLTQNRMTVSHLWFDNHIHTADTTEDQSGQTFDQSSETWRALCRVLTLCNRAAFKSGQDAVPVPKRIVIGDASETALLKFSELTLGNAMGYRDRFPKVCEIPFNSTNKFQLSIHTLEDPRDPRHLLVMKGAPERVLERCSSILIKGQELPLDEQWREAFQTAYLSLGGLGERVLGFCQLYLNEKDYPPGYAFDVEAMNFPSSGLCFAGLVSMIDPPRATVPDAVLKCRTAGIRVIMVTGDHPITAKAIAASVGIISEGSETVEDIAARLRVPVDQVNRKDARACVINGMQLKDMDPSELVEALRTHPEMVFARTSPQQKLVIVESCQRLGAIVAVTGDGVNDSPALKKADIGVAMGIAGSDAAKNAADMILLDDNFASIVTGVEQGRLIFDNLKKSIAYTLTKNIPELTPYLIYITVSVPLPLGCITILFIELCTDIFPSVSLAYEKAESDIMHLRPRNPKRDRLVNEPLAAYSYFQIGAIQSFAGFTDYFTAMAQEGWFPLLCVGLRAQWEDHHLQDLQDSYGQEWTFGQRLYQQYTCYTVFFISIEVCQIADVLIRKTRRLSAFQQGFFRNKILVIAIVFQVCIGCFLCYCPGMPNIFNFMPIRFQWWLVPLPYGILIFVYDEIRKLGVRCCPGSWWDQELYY
Sequence of HKα1-containing H^+,K^+-ATPases (P51164 whole entry partner): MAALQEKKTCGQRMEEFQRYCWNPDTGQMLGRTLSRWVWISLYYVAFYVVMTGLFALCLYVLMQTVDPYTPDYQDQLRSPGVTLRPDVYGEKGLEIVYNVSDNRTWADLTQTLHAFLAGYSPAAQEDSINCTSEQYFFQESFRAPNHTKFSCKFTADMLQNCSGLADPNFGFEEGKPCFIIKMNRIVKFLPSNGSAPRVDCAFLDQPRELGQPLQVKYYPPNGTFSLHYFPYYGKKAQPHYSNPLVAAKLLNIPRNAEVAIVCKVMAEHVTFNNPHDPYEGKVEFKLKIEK

As to `Cc1nc2c(OCc3ccccc3)cccn2c1CC#N` [Schering 28080], in data set [1], the “H+,K+-ATPase isoform inhibited” value was “only inhibit the HKα1-containing H^+,K^+-ATPases”.

On to `C[C@]12CCC(=O)C=C1CC[C@@H]1[C@@H]2[C@@H](O)C[C@]2(C=O)[C@@H](C(=O)CO)CC[C@@H]12` [aldosterone], for which the “effect on Schering 28080-sensitive ATPase activity” value in data set [2] is reported as “did not significantly affect”.

Consider `CC(=O)[C@H]1CC[C@H]2[C@@H]3CCC4=CC(=O)CC[C@]4(C)[C@H]3CC[C@]12C` [progesterone], for which the “effect on renal HKa2 mRNA expression” value in data set [3] is recorded as “stimulated”.
